Data as given in patent US11083701B2, “Dermatomycosis treatment agent” (priority 2015, dated 2021).
Converted amounts (≈) assume the structure as drawn.

Key:
Aspergillus oryzae = details: Non-patent Literature 3; cited from earlier work
Candida krusei = details: Non-patent Literature 3; cited from earlier work
Candida albicans = details: Non-patent Literature 5; cited from earlier work
small red papules = test: Human case, Example 13: external treatment of small red papules; type: in vivo; details: 3% (also printed 5%) test solution, sprayed once daily, left thigh
Protocol: (§1) The curative action of trialkali metal salts of citric acid on dermatomycosis was determined based on whether there was a therapeutic effect on human tinea. The cases of tinea used in the test include a variety of cases, such as vesicular tinea on the skin, interdigital tinea, hyperkeratotic tinea, tinea corporis, and tinea unguium. […] In these cases, no skin irritation due to the medicinal agents was confirmed. In many cases described in the Examples, Trichophyton fungus was isolated and identified as a pathogenic fungus; additionally, Example 10 describes a case in which Candida was isolated and identified, and Example 11 describes a case in which Aspergillus was isolated and identified.
A 3% test solution of trisodium citrate was prepared in the same manner as in Example 4. This 5% test solution was sprayed once daily on small red papules that developed on the left thigh.

[1] = test system: T. mentagrophytes, IFM59813; test: Drug-sensitivity test, microdilution method, CLSI guidelines; type: cell-based, Trichophyton mentagrophytes
Protocol: (§2) The antimicrobial activity of therapeutic agents for treating dermatomycosis was evaluated and confirmed by performing a drug-sensitivity test with major pathogenic fungi in accordance with the CLSI (Clinical Laboratory Standards Institute, U.S.) guidelines. The pathogenic fungi selected were genus Trichophyton (T. rubrum, T. mentagrophytes), genus Microsporum (M. gypseum), genus Epidermophyton (E. floccosum), genus Candida (C. albicans), genus Aspergillus (A. fumigatus), and genus Cryptococcus (C. neoformans). The Examples show the test results. The antimicrobial activity of the compounds of the present invention (MIC, mg/ml) against T. mentagrophytes, which is a typical dermatophytic fungus, is as follows: tripotassium citrate 3.1; and trisodium citrate 6.3. A drug-sensitivity test with a fungus belonging to genus Malassezia (M. furfur) was also performed in accordance with the method of Sugita et al., which employs an agar dilution method (T. Sugita et al., J. Clinical Microbiology, 43, 2824-2829 (2005)). The antimicrobial activity against M. furfur (MIC, mg/ml) was as follows: tripotassium citrate 10.0.
In these drug-sensitivity tests, the medium contained Mg ions and Ca ions necessary for fungal conidia (spores) to germinate and grow. Because carboxyl groups of organic acids bind to these ions, organic acids have competitive inhibitory activity on fungal growth.
In the antimicrobial activity measurement method in accordance with the CLSI guidelines described above, an excessively large amount of magnesium ions and calcium ions is added to the RPMI-1640 medium for use. Thus, the trialkali metal salt of citric acid added to the test system binds completely to the excessively large amount of metal ions, resulting in an apparently large MIC value. For this reason, the ICP analytical method was performed to measure the content of magnesium ions and calcium ions in a test solution used as a blank test in this test system (a solution obtained by adding a solution containing spores of T. mentagrophytes to a RPMI-1640 medium solution, and performing a culture treatment) and to measure the content of magnesium ions and calcium ions in the original RPMI-1640 medium solution, thereby calculating the amount of alkali metal ions absorbed by the spores of T. mentagrophytes. The amount of the citric salt that can bind to all of the alkali metal ions absorbed by the spores is the substantial MIC value.
The antifungal activity of tripotassium citrate and trisodium citrate against a variety of pathogenic fungi was evaluated by performing a drug-sensitivity test. The test was performed using a microdilution method in accordance with the CLSI (Clinical Laboratory Standards Institute, U.S.) guidelines. […]

M. furfur = test: Malassezia drug-sensitivity test, method of Sugita et al. (agar dilution); type: cell-based; details: mLNA medium, 32° C., 7 days
Protocol: as §2
The antimicrobial activity of tripotassium citrate against fungi belonging to genus Malassezia was evaluated by performing a drug-sensitivity test with human-related Malassezia species, in accordance with the method disclosed in Sugita et al. (2005). […]

C. albicans, IFM5740 = test: Drug-sensitivity test, microdilution method, CLSI guidelines; type: cell-based, Candida albicans
Protocol: as §2, with “10.0. […]” for “10.0.”
(§3) The antifungal activity of tripotassium citrate and trisodium citrate against a variety of pathogenic fungi was evaluated by performing a drug-sensitivity test. […]

tinea unguium = test: Human case, Example 12: external treatment of tinea unguium; type: in vivo; details: 10% aqueous solution, sprayed once daily, after a half year
Protocol: as §1
A 10% aqueous solution of tripotassium citrate was prepared. This 10% test solution was sprayed once daily on the right thumbnail, the entirety of which had developed tinea unguium.

[2] = test system: tinea unguium (Clavispora lusitaniae isolated); test: Human case, Example 10: external treatment of tinea unguium; type: in vivo; details: 5% solution, sprayed once daily, after one and a half months
Protocol: as §1
A 5% solution of tripotassium citrate prepared in the same manner as in Example 9 was sufficiently sprayed once daily on tinea unguium on the tip of the nail of the fourth finger of the right hand. […] From the nail specimen of this affected area, a Candida fungus was isolated and confirmed to be Clavispora lusitaniae (the teleomorph of Candida lusitaniae) by gene analysis.

T. rubrum, IFM59814 = test: Drug-sensitivity test, microdilution method, CLSI guidelines; type: cell-based, Trichophyton rubrum
Protocol: as §2, with “10.0. […]” for “10.0.”
as §3

[3] = test system: small red papules (Aspergillus tubingensis as the pathogen); test: Human case, Example 11: external treatment of small red papules; type: in vivo; details: 5% solution, sprayed once daily, left chest
Protocol: as §1
A 5% solution of tripotassium citrate prepared in the same manner as in Example 9 was sprayed once daily on small red papules that developed on the left chest part. […] From the small red papules, a body fluid was collected, and the pathogen was cultured, followed by gene analysis, thereby confirming Aspergillus tubingensis as the pathogen.

[4] = test system: tinea of nail and surrounding skin (Trichophyton rubrum isolated); test: Human case, Example 9: immersion treatment of fingernail tinea; type: in vivo; details: 5% test solution, finger immersed 5 hours once every 2 days, after 3 months
Protocol: as §1
20 mL of glycerin (84-87% aqueous solution) was added to 106 g of tripotassium citrate monohydrate, and 15% ethanol was further added thereto to give 2 L, thereby preparing a 5% test solution. About 2 mL of this test solution was placed into a commercially available fingerstall (size M). The middle finger of the right hand, which developed tinea on the right edge of the nail and the surrounding skin from the tip to the base of the nail, was immersed in the solution for 5 hours once every 2 days. […] From the nail specimen of this case, a Trichophyton fungus was isolated, and confirmed to be Trichophyton rubrum by gene analysis.

[5] = test system: hyperkeratotic tinea (Trichophyton mentagrophytes isolated); test: Human case, Example 3: external treatment of hyperkeratotic tinea; type: in vivo; details: 0.5% test solution in 20% ethanol, sprayed three times daily, after about 3 months
Protocol: as §1
20% ethanol was added to 5.3 g of tripotassium citrate monohydrate to give 1000 g, thereby preparing a 0.5% test solution. The 0.5% test solution was applied to hyperkeratotic tinea that extensively developed on the arch on the sole of a foot by spraying the solution three times daily. […] From the area affected by this tinea, Trichophyton mentagrophytes, which is one type of Trichophyton fungi, was isolated and confirmed.

tinea corporis = test: Human case, Example 5: external treatment of tinea corporis; type: in vivo; details: 3% test solution, sprayed twice daily, after about 2 months
Protocol: as §1
A 3% test solution of tripotassium citrate prepared in the same manner as in Example 4 was sprayed twice daily onto tinea corporis that extensively developed over the left part of the buttocks. […] Although light brown pigmentation developed on the healed skin, it faded away over time and became less prominent.

M. gypseum, IFM58916 = test: Drug-sensitivity test, microdilution method, CLSI guidelines; type: cell-based, Microsporum gypseum
Protocol: as §2, with “10.0. […]” for “10.0.”
as §3

[6] = test system: tinea in four nails of the left foot; test: Human case, Example 8: immersion treatment of toenail tinea; type: in vivo; details: entire foot immersed 1 hour daily in 3% test solution, after a half year
Protocol: as §1
In the case in which tinea developed in all four nails except the fourth nail of the left foot, the entire foot was immersed for 1 hour daily in a 3% test solution prepared in the same manner as in Example 4. Over the course of the treatment, new nails grew from the base of the nails.

[7] = test system: thin hyperkeratotic tinea (Trichophyton rubrum isolated); test: Human case, Example 6: external treatment of thin hyperkeratotic tinea; type: in vivo; details: 3% test solution, sprayed once daily, after about 1 month
Protocol: as §1
A 3% test solution prepared in the same manner as in Example 4 was sprayed once daily onto thin hyperkeratotic tinea that extensively developed over around the tip of the nails on the sole of both feet. […] From this affected area of the skin, Trichophyton rubrum was isolated and confirmed.

interdigital tinea = test: Human case, Example 7: external treatment of interdigital tinea; type: in vivo; details: 3% test solution, sprayed once daily, after about 2 months
Protocol: as §1
A 3% test solution prepared in the same manner as in Example 4 was sprayed once daily onto interdigital tinea that extensively developed between the toes of the feet.

C. neoformans, IFM5807 = test: Drug-sensitivity test, microdilution method, CLSI guidelines; type: cell-based, Cryptococcus neoformans
Protocol: as §2, with “10.0. […]” for “10.0.”
as §3

human tinea = test: Curative action on human tinea, overall (Examples 3 to 13); type: in vivo; details: 5% solution applied; relapse of symptoms and pigmentation before the end result
Protocol: as §1
Applying a 5% tripotassium citrate solution on the small red papules on the body made the papules smooth, and relapse of symptoms was observed after every day, with development of pigmentation, and followed by complete cure; this phenomenon was observed quite frequently. The relapse of symptoms was caused by germination of spores, and tripotassium citrate appears to have induced the germination of spores. The biggest factor for the low likelihood of curing dermatomycosis is the presence of spores; even after a treatment with a medicinal agent, if spores remain, the spores germinate, enabling dermatomycosis to return. […]

vesicular tinea = test: Human case, Example 4: external treatment of vesicular tinea; type: in vivo; details: 3% test solution, sprayed twice daily; symptom practically disappeared after about 1 month, treatment continued about 1 month more
Protocol: as §1
20 mL of glycerin (84-87% aqueous solution) was added to 63.6 g of tripotassium citrate monohydrate, and 15% ethanol was further added thereto to give 2 L, thereby preparing a 3% test solution. This 3% test solution was applied twice daily, by spraying the solution, to vesicular tinea that extensively developed on the arch of the left foot. After about 1 month, the skin symptom practically disappeared.

A. fumigatus, IFM4942 = test: Drug-sensitivity test, microdilution method, CLSI guidelines; type: cell-based, Aspergillus fumigatus
Protocol: as §2, with “10.0. […]” for “10.0.”
as §3

E. floccosum, IFM53345 = test: as above; type: cell-based, Epidermophyton floccosum
Protocol: as §2, with “10.0. […]” for “10.0.”
as §3

O=C(O)CC(O)(CC(=O)O)C(=O)O [citric acid, reference compound]
antimicrobial activity (Aspergillus oryzae): did not exhibit antimicrobial activity
antimicrobial activity (Candida krusei): did not exhibit antimicrobial activity

O=C([O-])CC(O)(CC(=O)[O-])C(=O)[O-].[Na+].[Na+].[Na+] [trisodium citrate]
antimicrobial activity (Candida albicans): exhibited antimicrobial activity
antimicrobial activity (Aspergillus oryzae): did not exhibit antimicrobial activity
antimicrobial activity (Candida krusei): did not exhibit antimicrobial activity
effect on small red papules (small red papules): immediately shrank, and after 2 weeks, cicatrization and pigmentation occurred
MIC [1]: 6300 µg/mL

C[C@@H]1[C@H](O)[C@@H](C)/C=C/C=C/C=C/C=C/C=C/C=C/C=C/[C@H](O[C@@H]2O[C@H](C)[C@@H](O)[C@H](N)[C@@H]2O)C[C@@H]2O[C@](O)(C[C@@H](O)C[C@@H](O)[C@H](O)CC[C@@H](O)C[C@@H](O)CC(=O)O[C@H]1C)C[C@H](O)[C@H]2C(=O)O [amphotericin B, reference compound]
MIC [1]: 2000 µg/mL (≈ 2160 µM)

O=C([O-])CC(O)(CC(=O)[O-])C(=O)[O-].[K+].[K+].[K+] [tripotassium citrate]
MIC (M. furfur): 10000 µg/mL
MIC (C. albicans, IFM5740): 25000 µg/mL
curative effect on tinea unguium (tinea unguium): a healthy nail returned
curative effect on tinea unguium (Candida) [2]: tinea unguium was cured
MIC (T. rubrum, IFM59814): 12500 µg/mL
effect on small red papules (Aspergillus) [3]: immediately shrank, and after one week, pigmentation and cicatrization occurred
curative effect on tinea of fingernail and surrounding skin [4]: a healthy nail and skin grew back
curative effect on hyperkeratotic tinea [5]: hyperkeratotic tinea disappeared, and clean skin grew back
curative effect on tinea corporis (tinea corporis): tinea corporis disappeared, and healthy skin grew back
MIC (M. gypseum, IFM58916): 12500 µg/mL
curative effect on nail tinea (foot) [6]: tinea in all of the nails was fully cured
curative effect on thin hyperkeratotic tinea [7]: pink-color, healthy skin grew back
curative effect on interdigital tinea (interdigital tinea): the skin symptom disappeared, and healthy skin grew back
MIC (C. neoformans, IFM5807): 390 µg/mL
effect on small red papules on the body (human tinea): complete cure
MIC [1]: 3100 µg/mL
corrected MIC value ([1]; corrected for the metal ions absorbed by spores (ICP analysis)): 54 µg/mL
curative effect on vesicular tinea (vesicular tinea): this tinea was cured
MIC (A. fumigatus, IFM4942): 6300 µg/mL
MIC (E. floccosum, IFM53345): 1600 µg/mL
